According to patent US12662451B2, “Chemical compounds and uses thereof” (GLAXOSMITHKLINE INTELLECTUAL PROPERTY (NO.4) LIMITED, priority 2023, dated 2026):
Structures can show the parent of a compound that is named as a salt. Where two headings read alike, the source gives them in different places.

Key:
[1] = biological target: T1, recombinant full-length WRN protein (1-1432) (Homo sapiens, UniProt Q14191); assay: WRN unwinding activity, fluorogenic 384-well assay (Example A); type: biochemical; conditions: WRN unwinding activity, Table 2; for IC50: 4 hr, read-out: 4 hr UNW pIC50 (converted)
T1 construct: recombinant full-length WRN protein (1-1432)
T1 sequence (Q14191 whole entry): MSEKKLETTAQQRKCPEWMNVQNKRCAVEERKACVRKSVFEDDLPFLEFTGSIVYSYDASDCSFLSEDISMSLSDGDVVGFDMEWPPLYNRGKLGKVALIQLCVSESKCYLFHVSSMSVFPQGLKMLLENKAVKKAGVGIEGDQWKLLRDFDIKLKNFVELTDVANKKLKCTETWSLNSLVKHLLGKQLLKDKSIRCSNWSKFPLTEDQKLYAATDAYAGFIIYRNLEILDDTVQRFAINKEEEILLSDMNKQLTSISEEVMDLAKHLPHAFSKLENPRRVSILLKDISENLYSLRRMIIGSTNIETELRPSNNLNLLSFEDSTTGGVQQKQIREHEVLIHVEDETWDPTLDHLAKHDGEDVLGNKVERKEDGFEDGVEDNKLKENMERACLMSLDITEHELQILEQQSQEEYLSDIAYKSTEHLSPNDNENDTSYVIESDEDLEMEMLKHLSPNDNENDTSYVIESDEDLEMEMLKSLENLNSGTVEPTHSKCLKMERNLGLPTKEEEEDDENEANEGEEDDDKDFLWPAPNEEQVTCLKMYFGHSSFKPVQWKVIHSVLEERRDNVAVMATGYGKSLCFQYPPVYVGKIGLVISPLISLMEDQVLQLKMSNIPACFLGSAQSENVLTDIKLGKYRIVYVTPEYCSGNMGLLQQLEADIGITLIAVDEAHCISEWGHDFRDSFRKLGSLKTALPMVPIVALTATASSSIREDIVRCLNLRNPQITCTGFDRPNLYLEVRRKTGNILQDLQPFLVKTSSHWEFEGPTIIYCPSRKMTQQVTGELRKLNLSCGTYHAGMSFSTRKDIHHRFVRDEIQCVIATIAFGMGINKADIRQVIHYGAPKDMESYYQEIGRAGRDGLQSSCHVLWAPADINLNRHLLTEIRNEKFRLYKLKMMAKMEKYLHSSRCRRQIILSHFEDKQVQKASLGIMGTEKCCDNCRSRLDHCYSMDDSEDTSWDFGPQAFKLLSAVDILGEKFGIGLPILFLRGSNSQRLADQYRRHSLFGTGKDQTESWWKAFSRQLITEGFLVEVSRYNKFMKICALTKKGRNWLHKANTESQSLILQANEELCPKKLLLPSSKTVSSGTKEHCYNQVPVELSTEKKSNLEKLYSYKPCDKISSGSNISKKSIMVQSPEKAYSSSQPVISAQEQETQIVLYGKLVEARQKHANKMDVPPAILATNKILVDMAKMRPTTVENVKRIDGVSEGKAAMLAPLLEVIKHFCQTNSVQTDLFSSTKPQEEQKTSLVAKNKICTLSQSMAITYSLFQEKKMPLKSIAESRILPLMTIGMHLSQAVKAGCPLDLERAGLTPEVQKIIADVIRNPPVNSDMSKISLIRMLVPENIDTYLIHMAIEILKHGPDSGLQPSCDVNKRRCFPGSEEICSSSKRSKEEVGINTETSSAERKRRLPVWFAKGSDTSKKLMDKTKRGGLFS
Summary of the method: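 Read-out is end-point unwinding of a fluorophore/quencher duplex (ex 525, em 598 nm) after 60 min with 200 μM ATP and 12 nM DNA (2× stocks), EDTA stop. Compound first sat 4 h with 200 pM WRN (2× stock) in pH 8.0 Tris buffer; four-parameter fit gives pIC50.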

[2] = system: SW48 human colorectal cancer cells (MSI-H cancer cells)
Experimental: (§1) SW48 human colorectal cancer cells (MSI-H cancer cells) were obtained from the American Type Culture Collection and maintained in growth medium composed of RPMI-1640 supplemented with 10% fetal bovine serum. Cells were maintained in a humidified 5% CO2 incubator at 37° C. Cell dissociation was conducted using TrypLE Select to detach cells from culture flasks. Following dissociation, cells were centrifuged briefly and resuspended in assay medium RPMI-1640+10% fetal bovine serum. Black 384-well assay plates were prepared from source plates of DMSO and compounds dissolved in DMSO prior to cell dispensation. These source plates were prepared in eleven point, 3-fold serial dilutions from 10 mM stocks stored at 4° C. Compounds and DMSO controls were dispensed into assay plates at 150 nanoliters per well from source plates using Labcyte Echo 555 or Echo 655T dispensers with Column 6 and Column 18 containing DMSO only. Cells were then seeded into prepared assay plates in 50 microliters assay medium at 250 cells per well into Columns 1 thru 17 and Columns 19-24. Assay medium without cells was added to column 18 to serve as a surrogate for 100% cell cytotoxicity. Following incubation for 120 hours in a humidified 5% CO2 incubator at 37° C., cellular ATP concentration of each well was measured and used as a surrogate of cell viability. This was performed by adding 50 microliters of CellTiter-Glo reagent to each well followed by a 10-minute incubation at room temperature. Luminescence was measured on a Synergy Neo or Synergy Neo2 multimode plate reader. Compound cytotoxic response (% C) was normalized to the robust means of column 6 (Control 1, 0% Cytotoxicity) and column 18 (Control 2, 100% Cytotoxicity) and normalized % cytotoxicity (% C) calculated. % C=100−100*((Compound−Control 2)/(Control1−Control2)). These normalized data were then used to determine a 50% cytotoxic response (CC50) using 4-parameter logistic curve model 201 in Activity Base XE:
(§2) [formula] • where A=minimum asymptote (% cytotoxicity), B=maximum asymptote (% cytotoxicity), C=Log CC50 (pCC50), D=Hill slope, and x=[inhibitor], (M).

[3] = Cell culture media unbound percentage and stability by rapid equilibrium dialysis (Example C); type: in vitro ADME; conditions: bovine, cell assay medium (RPMI-1640 with 10% fetal bovine serum), pH 7.4, rapid equilibrium dialysis, 4 hours at 37° C., read-out: Cell Culture Media Binding (% unbound)
Summary of the method: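 Percent unbound in cell assay medium came from the LC-MS/MS receiver:donor peak area ratio, with stability taken as the 240 min over 0 min ratio. Set-up: 1 μM nominal compound in medium dialysed against pH 7.4 PBS (100 mM phosphate, 150 mM NaCl), 4 h, 37° C, shaken, in triplicate.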

[4] = system: SW48 human colorectal cancer cells; assay: Calculated free drug potency in SW48 cell assay, corrected with media free fraction (Example C); type: cell-based; conditions: Homo sapiens, SW48, SW48 pCC50 corrected with measured free fraction in cell assay media
Summary of the method: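 Free drug potency derives from correcting SW48 assay concentrations with the unbound fraction in medium. That fraction came from RED against pH 7.4 PBS, 1 μM nominal compound, 4 h at 37 °C, quantified by LC-MS/MS peak area ratios at T=240 versus T=0 min.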

[5] = system: SW48 human colorectal cancer cell line xenografts; assay: In vivo efficacy in mouse model bearing SW48 xenografts (Example D); conditions: SW48 xenograft, female nude mice
Experimental: In Viva Efficacy Study of Test Compounds in Mouse Model Bearing SW48 Human Colorectal Cancer Cell Line Xenografts
Experiments were performed with female Crl:Nu-Foxn1^nu nude mice. Animals were housed under optimized hygienic condition with food and water at libitum and a 12 h:12 h light:dark cycle. Animals were allowed to acclimatize for at least 4 days before being enrolled in the experimental design.
SW48 human colorectal cancer cells (RRID:CVCL1724) were obtained from ATCC. The cells were cultured in RPMI 1640 with 10% Fetal Bovine Serum at 37° C. in atmosphere of 5% CO2 in air. To establish SW48 xenografts, cells were harvested and resuspended in serum free RPM11640 and Matrigel before inoculation and 5×10^6 SW48 tumor cells were injected subcutaneously in 100 μL volume using 27G1/2 needle. Cells were inoculated in the right hind flank of the animals.
Post cell inoculation, tumor growth was monitored daily, and animals were randomized into treatment groups (n=10/group) once the tumor volume reached an appropriate size (80-150 mm^3). Throughout the treatment period, both tumor volume and body weight were measured approximately twice a week. The tumor size, in mm^3, was computed using the formula: 0.5×L×W^2, where W=width and L=length of the tumor. To prepare a test compound for oral administration, between 30-120 mg of the test compound was dissolved in a vehicle solution consisting of 0.5% Methycellulose (cp 400) and 0.5% Tween 80. The compound was freshly prepared one hour prior to daily administration. If turbidity was observed, the solution was vortexed at over 2000 rpm for 10 minutes and mixed with a 1 mL syringe. The resulting solution formulation was utilized for in vivo studies.
Animals received either a vehicle or test compounds at dosage of 30 or 100 mg/kg daily through oral gavage (10 ml/kg). Body weight was measured twice a week using the Ohaus electronic scale (STX421) and the data was automatically added to the study log. Moreover, daily clinical observations were performed to closely monitor the animals. Tumor growth inhibition was computed using the following formula:
[formula] where T=current group value; T0=Current group initial value; C=Control group Value; C0=control group initial value.
Data of tumor volume were exported and analyzed in GraphPad Prism (9.5). The analysis included a two-way ANOVA test, comparing the vehicle control vs. treatments at different time points, followed by a Tukey HSD post hoc test.
The calculation of tumor regression was conducted as per the following formula:
[formula] where Day 0=treatment start day; Δ tumor volume=mean tumor volume on the evaluation day—mean tumor volume Day 0.

[6] = system: SW48 human colorectal cancer cells (MSI-H cancer cells); assay: SW48 cell viability, CellTiter-Glo, 120 hours (Example B); conditions: for CC50: Homo sapiens
Experimental: as §1, §2

[7] = SW48, 120 h, read-out: SW48 pCC50, SW48 cell viability, 120 hours incubation (converted), Table 2
[8] = SW48, read-out: SW48 pCC50, measured potency from Example B, as repeated in Table 3 (converted)

SMILES | 4 hr UNW pIC50 [1] | SW48 pCC50 [2] | IC50 [1] | fraction unbound at 4 h, 1 µM [3] | CC50 [4] | mean tumor regression ([5]; 30 mpk daily oral, 23rd day) | CC50 [6, 7] | CC50 [6, 8] | mean tumor regression ([5]; 30 mpk orally once a day, 21st day) | tumor growth inhibition compared to the vehicle control ([5]; 30 mpk daily oral, 21st day) | mean tumor regression ([5]; 100 mpk daily oral, 55th day) | SW48 pCC50 ([6]; SW48 cell viability, 120 hours incubation, Table 2)
Cc1nc2cc(S(=O)(=O)N(C)c3ccc([C@H]4CCC[C@@H](COc5ccc(C(F)(F)F)cc5)[C@@H]4C(=O)O)cc3)cc([C@@H]3CCCNC3)c2n1C.Cl (stereo in doubt) [Example 210, rel-(1R,2R,6S)-2-((4-(trifluoromethyl)phenoxy)methyl)-6-(4-((N,1,2-trimethyl-7-((S)-piperidin-3-yl)-1H-benzo[d]imidazole)-5-sulfonamido)phenyl)cyclohexane-1-carboxylic acid, hydrochloride] | 5.7 | 4.9 |  |  |  |  |  |  |  |  |  | 
CN(c1ccc([C@H]2CCC[C@@H](C(=O)Nc3ccc(C(F)(F)F)cc3F)[C@@H]2C(=O)O)cc1)S(=O)(=O)c1ccc(-n2cccn2)cc1 [Example 98, (1R,2R,6S)-2-((2-fluoro-4-(trifluoromethyl)phenyl)carbamoyl)-6-(4-((N-methyl-4-(1H-pyrazol-1-yl)phenyl)sulfonamido)phenyl)cyclohexane-1-carboxylic acid] | 8.6 | 5.5 |  |  |  |  |  |  |  |  |  | 
Cc1nc2cc(S(=O)(=O)N(C)c3ccc([C@H]4C[C@@H](N5CCC(F)(F)C5)C[C@@H](C(=O)Nc5ccc(C(F)(F)F)cc5F)[C@@H]4C(=O)O)cc3)ccc2n1C [Example 306, (1R,2R,4R,6S)-4-(3,3-difluoropyrrolidin-1-yl)-2-((2-fluoro-4-(trifluoromethyl)phenyl)carbamoyl)-6-(4-((N,1,2-trimethyl-1H-benzo[d]imidazole)-5-sulfonamido)phenyl)cyclohexane-1-carboxylic acid] |  |  | 5.01 nM | 0.103 | 10.2 nM | −73.2% | 100 nM | 100 nM |  |  |  | 
CCO[C@@H]1C[C@H](c2ccc(N(C)S(=O)(=O)c3ccc4c(c3)nc(C)n4C)cc2)[C@@H](C(=O)O)[C@H](C(=O)Nc2ccc(C(F)(F)F)cc2F)C1 (single isomer, unassigned) [Example 138] |  |  | 3.16 nM | 0.067 | 17 nM |  | 251 nM | 251 nM | −74.26% |  |  | 
COC[C@@H]1C[C@H](c2ccc(N(C)S(=O)(=O)c3ccc4c(c3)nc(C)n4C)cc2)[C@@H](C(=O)O)[C@H](C(=O)Nc2ccc(C(F)(F)F)cc2F)C1 (single isomer, unassigned) [Example 250] |  |  | 6.31 nM | 0.027 | 8.51 nM |  | 316 nM | 316 nM |  | 72.95% |  | 
Cc1nc2cc(S(=O)(=O)N(C)c3ccc([C@H]4CCC[C@@H](C(=O)Nc5ccc(C(F)(F)F)cc5F)[C@@H]4C(=O)O)cc3)ccc2n1C (single isomer, unassigned) [Example 83] |  |  | 2.51 nM | 0.065 | 12.9 nM |  |  | 251 nM |  |  | −24.01% | 6.6
Cc1cc(N(C)S(=O)(=O)c2ccc3c(c2)nc(C)n3C)ccc1[C@H]1CCC[C@@H](C(=O)Nc2ccc(C(F)(F)F)cc2F)[C@@H]1C(=O)O (stereo in doubt) [Example 386, rel-(1R,2R,6S)-2-((2-fluoro-4-(trifluoromethyl)phenyl)carbamoyl)-6-(2-methyl-4-((N,1,2-trimethyl-1H-benzo[d]imidazole)-5-sulfonamido)phenyl)cyclohexane-1-carboxylic acid] |  |  | 3.98 nM | 0.1 | 200 nM |  | 2000 nM | 2000 nM |  |  |  | 
Cc1cc([C@H]2CCC[C@@H](C(=O)Nc3ccc(C(F)(F)F)cc3F)[C@@H]2C(=O)O)ccc1N(C)S(=O)(=O)c1ccc2c(c1)nc(C)n2C [Example 295, (1R,2R,6S)-2-((2-fluoro-4-(trifluoromethyl)phenyl)carbamoyl)-6-(3-methyl-4-((N,1,2-trimethyl-1H-benzo[d]imidazole)-5-sulfonamido)phenyl)cyclohexane-1-carboxylic acid] |  |  | 1.58 nM | 0.118 | 186 nM |  | 1580 nM | 1580 nM |  |  |  | 
CN[C@H]1C[C@H](C(=O)Nc2ccc(C(F)(F)F)cc2F)[C@@H](C(=O)O)[C@H](c2ccc(N(C)S(=O)(=O)c3ccc4c(c3)nc(C)n4C)cc2)C1 (single isomer, unassigned) [Example 255] |  |  | 158 nM | 0.439 | 3470 nM |  | 7940 nM | 7940 nM |  |  |  | 
CN(c1ccc([C@H]2CCC[C@@H](C(=O)Nc3ccc(C(F)(F)F)cc3F)[C@@H]2C(=O)O)cc1)S(=O)(=O)c1ccc2c(c1)ncn2C (single isomer, unassigned) [Example 88] |  |  | 2.51 nM | 0.0297 | 11.7 nM |  | 398 nM | 398 nM |  |  |  | 
CC(=O)N(C)[C@@H]1C[C@H](c2ccc(N(C)S(=O)(=O)c3ccc4c(c3)nc(C)n4C)cc2)[C@@H](C(=O)O)[C@H](C(=O)Nc2ccc(C(F)(F)F)cc2F)C1 (stereo in doubt) [Example 292, rel-(1R,2R,4R,6S)-2-((2-fluoro-4-(trifluoromethyl)phenyl)carbamoyl)-4-(N-methylacetamido)-6-(4-((N,1,2-trimethyl-1H-benzo[d]imidazole)-5-sulfonamido)phenyl)cyclohexane-1-carboxylic acid] |  |  | 1.58 nM | 0.223 | 178 nM |  | 794 nM | 794 nM |  |  |  | 
Cc1nc2cc(S(=O)(=O)N(C)c3ccc([C@H]4C[C@@H](OC(C)C)C[C@@H](C(=O)Nc5ccc(C(F)(F)F)cc5F)[C@@H]4C(=O)O)cc3)ccc2n1C (stereo in doubt) [Example 311, rel-(1R,2R,4R,6S)-2-((2-fluoro-4-(trifluoromethyl)phenyl)carbamoyl)-4-isopropoxy-6-(4-((N,1,2-trimethyl-1H-benzo[d]imidazole)-5-sulfonamido)phenyl)cyclohexane-1-carboxylic acid] |  |  | 2.51 nM | 0.0856 | 21.4 nM |  | 251 nM | 251 nM |  |  |  | 
Cc1nc2cc(S(=O)(=O)N(C)c3ccc([C@H]4CCC[C@@H](C(=O)Nc5ccc(C(F)(F)F)cc5F)[C@@H]4C(=O)O)cc3)cc(CCN)c2n1C [Example 289, (1R,2S,6R)-2-(4-((7-(2-aminoethyl)-N,1,2-trimethyl-1H-benzo[d]imidazole)-5-sulfonamido)phenyl)-6-((2-fluoro-4-(trifluoromethyl)phenyl)carbamoyl)cyclohexane-1-carboxylic acid, hydrochloride] |  |  | 1.58 nM | 0.412 | 4070 nM |  | 10000 nM |  |  |  |  | 
